Experimental data published in patent US10294202B2, “Pyrrolidinones as herbicides” (FMC Corporation, priority 2013, dated 2019).

Assays:
[1] = system: ducksalad; experiment: Test B flooded paddy test; format: in vivo, Heteranthera limosa; conditions: Flood, scale of 0 to 100 where 0 is no effect and 100 is complete control
Procedure, shortened: (§1)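 Treatment was made at the 2-leaf stage by dosing the standing floodwater, kept 3 cm above soil level for the whole test. Greenhouse exposure lasted 13 to 15 days. Response is a visual percent rating relative to controls, where a dash indicates no test result.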

[2] = system: corn; experiment: Test A pre-/postemergence herbicide test; format: in vivo, Zea mays
Procedure, shortened: (§2)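 Seeds sown in loam soil/sand blend received a preemergence directed soil spray of test chemical in non-phytotoxic solvent with surfactant; postemergence plants (2–10 cm, one- to two-leaf stage) were sprayed with the same formulation. After about 10 days in greenhouse, injury was rated visually versus untreated controls, 0 (no effect) to 100 (complete control).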

[3] = system: velvetleaf; experiment: Test A pre-/postemergence herbicide test; format: in vivo, Abutilon theophrasti
Procedure, shortened: as §2

[4] = system: pigweed; experiment: Test A pre-/postemergence herbicide test; format: in vivo, Amaranthus retroflexus
Procedure, shortened: as §2

[5] = system: morningglory; experiment: Test A pre-/postemergence herbicide test; format: in vivo, Ipomoea spp.
Procedure, shortened: as §2

[6] = system: barnyardgrass; experiment: Test B flooded paddy test; format: in vivo, Echinochloa crus-galli; conditions: Flood, scale of 0 to 100 where 0 is no effect and 100 is complete control
Procedure, shortened: as §1

[7] = system: wheat; experiment: Test A pre-/postemergence herbicide test; format: in vivo, Triticum aestivum
Procedure, shortened: as §2

[8] = system: crabgrass, large; experiment: Test A pre-/postemergence herbicide test; format: in vivo, Digitaria sanguinalis
Procedure, shortened: as §2

[9] = system: barnyardgrass; experiment: Test A pre-/postemergence herbicide test; format: in vivo, Echinochloa crus-galli
Procedure, shortened: as §2

[10] = system: giant foxtail; experiment: Test A pre-/postemergence herbicide test; format: in vivo, Setaria faberii
Procedure, shortened: as §2

[11] = system: rice; experiment: Test B flooded paddy test; format: in vivo, Oryza sativa; conditions: Flood, scale of 0 to 100 where 0 is no effect and 100 is complete control
Procedure, shortened: as §1

[12] = system: sedge, umbrella; experiment: Test B flooded paddy test; format: in vivo, Cyperus difformis; conditions: Flood, scale of 0 to 100 where 0 is no effect and 100 is complete control
Procedure, shortened: as §1

[13] = Postemergence, 1000 g ai/ha, 0 to 100 scale (0 no effect, 100 complete control)
[14] = Preemergence, 1000 g ai/ha, visual rating on 0 to 100 scale (0 no effect, 100 complete control), approx. 10 days
[15] = Postemergence, 125 g ai/ha, 0 to 100 scale, 0 is no effect, 100 is complete control
[16] = Postemergence, 500 g ai/ha, 0 to 100 scale (0 no effect, 100 complete control)
[17] = Preemergence, 125 g ai/ha, 0 to 100 scale where 0 is no effect and 100 is complete control
[18] = preemergence, 500 g ai/ha, 0 to 100 scale, 0 is no effect and 100 is complete control
[19] = 125 g ai/ha, visual rating, 0 to 100 scale, 0 no effect, 100 complete control, approximately 10 days, preemergence

Structure (SMILES): Cc1c(Cl)cccc1NC(=O)C1C(=O)NCC1c1ccc(F)c(F)c1 (racemic) [Compound 100]
- Plant response rating, Ducksalad ([1]; 1000 g ai/ha): 75
- Plant response rating, Corn [2, 13]: 40
- Plant response rating, Corn [2, 14]: 20
- Plant response rating, Velvetleaf [3, 13]: 0
- Plant response rating, Velvetleaf [3, 14]: 0
- Plant response rating, Pigweed [4, 13]: 0
- Plant response rating, Pigweed [4, 14]: 0
- Plant response rating, Morningglory [5, 13]: 0
- Plant response rating, Morningglory [5, 14]: 0
- Plant response rating, Barnyardgrass ([6]; 1000 g ai/ha): 25
- Plant response rating, Wheat [7, 13]: 30
- Plant response rating, Wheat [7, 14]: 20
- Plant response rating, Crabgrass, Large [8, 13]: 90
- Plant response rating, Crabgrass, Large [8, 14]: 90
- Plant response rating, Barnyardgrass [9, 13]: 80
- Plant response rating, Barnyardgrass [9, 14]: 90
- Plant response rating, Foxtail, Giant [10, 13]: 80
- Plant response rating, Foxtail, Giant [10, 14]: 90
- Plant response rating, Rice ([11]; 1000 g ai/ha): 0
- Plant response rating, Sedge, Umbrella ([12]; 1000 g ai/ha): 0

Structure (SMILES): O=C1NCC(c2ccc(C(F)(F)F)cc2F)C1C(=O)Nc1cccc(F)c1F (racemic) [Compound 260]
- Plant response rating, Ducksalad ([1]; 1000 g ai/ha): 95
- Plant response rating, Corn [2, 15]: 0
- Plant response rating, Corn [2, 16]: 0
- Plant response rating, Corn [2, 17]: 0
- Plant response rating, Corn [2, 18]: 10
- Plant response rating, Velvetleaf [3, 18]: 40
- Plant response rating, Pigweed [4, 15]: 60
- Plant response rating, Pigweed [4, 16]: 70
- Plant response rating, Pigweed [4, 17]: 60
- Plant response rating, Pigweed [4, 18]: 80
- Plant response rating, Morningglory [5, 15]: 0
- Plant response rating, Morningglory [5, 16]: 50
- Plant response rating, Morningglory [5, 17]: 20
- Plant response rating, Morningglory [5, 18]: 50
- Plant response rating, Barnyardgrass ([6]; 1000 g ai/ha): 0
- Plant response rating, Wheat [7, 15]: 0
- Plant response rating, Wheat [7, 16]: 0
- Plant response rating, Wheat [7, 17]: 0
- Plant response rating, Wheat [7, 18]: 0
- Plant response rating, Crabgrass, Large [8, 15]: 90
- Plant response rating, Crabgrass, Large [8, 16]: 90
- Plant response rating, Crabgrass, Large [8, 17]: 90
- Plant response rating, Crabgrass, Large [8, 18]: 90
- Plant response rating, Barnyardgrass [9, 15]: 70
- Plant response rating, Barnyardgrass [9, 16]: 80
- Plant response rating, Barnyardgrass [9, 17]: 70
- Plant response rating, Barnyardgrass [9, 18]: 80
- Plant response rating, Foxtail, Giant [10, 15]: 80
- Plant response rating, Foxtail, Giant [10, 16]: 90
- Plant response rating, Foxtail, Giant [10, 17]: 80
- Plant response rating, Foxtail, Giant [10, 18]: 90
- Plant response rating, Rice ([11]; 1000 g ai/ha): 0
- Plant response rating, Sedge, Umbrella ([12]; 1000 g ai/ha): 0

Structure (SMILES): COc1cc(C2CNC(=O)C2C(=O)Nc2ccccc2C(F)(F)F)ccc1F (racemic) [Compound 196]
- Plant response rating, Ducksalad ([1]; 250 g ai/ha): 0
- Plant response rating, Ducksalad ([1]; 1000 g ai/ha): 90
- Plant response rating, Corn [2, 19]: 0
- Plant response rating, Corn [2, 15]: 0
- Corn plant response rating (0 to 100 scale, 0 is no effect, 100 is complete control) ([2]; Postemergence, 500 g ai/ha): 0
- Plant response rating, Corn [2, 18]: 0
- Plant response rating, Velvetleaf [3, 19]: 0
- Plant response rating, Velvetleaf [3, 15]: 0
- Velvetleaf plant response rating (0 to 100 scale, 0 is no effect, 100 is complete control) ([3]; Postemergence, 500 g ai/ha): 0
- Plant response rating, Velvetleaf [3, 18]: 0
- Plant response rating, Pigweed [4, 19]: 0
- Plant response rating, Pigweed [4, 15]: 0
- Pigweed plant response rating (0 to 100 scale, 0 is no effect, 100 is complete control) ([4]; Postemergence, 500 g ai/ha): 0
- Plant response rating, Pigweed [4, 18]: 0
- Plant response rating, Morningglory [5, 19]: 0
- Plant response rating, Morningglory [5, 15]: 0
- Morningglory plant response rating (0 to 100 scale, 0 is no effect, 100 is complete control) ([5]; Postemergence, 500 g ai/ha): 0
- Plant response rating, Morningglory [5, 18]: 0
- Plant response rating, Barnyardgrass ([6]; 250 g ai/ha): 0
- Plant response rating, Barnyardgrass ([6]; 1000 g ai/ha): 20
- Plant response rating, Wheat [7, 19]: 0
- Plant response rating, Wheat [7, 15]: 0
- Wheat plant response rating (0 to 100 scale, 0 is no effect, 100 is complete control) ([7]; Postemergence, 500 g ai/ha): 0
- Plant response rating, Wheat [7, 18]: 0
- Plant response rating, Crabgrass, Large [8, 19]: 90
- Plant response rating, Crabgrass, Large [8, 15]: 70
- Crabgrass, Large plant response rating (0 to 100 scale, 0 is no effect, 100 is complete control) ([8]; Postemergence, 500 g ai/ha): 80
- Plant response rating, Crabgrass, Large [8, 18]: 100
- Plant response rating, Barnyardgrass [9, 19]: 0
- Plant response rating, Barnyardgrass [9, 15]: 30
- Barnyardgrass plant response rating (0 to 100 scale, 0 is no effect, 100 is complete control) ([9]; Postemergence, 500 g ai/ha): 80
- Plant response rating, Barnyardgrass [9, 18]: 70
- Plant response rating, Foxtail, Giant [10, 19]: 80
- Plant response rating, Foxtail, Giant [10, 15]: 20
- Foxtail, Giant plant response rating (0 to 100 scale, 0 is no effect, 100 is complete control) ([10]; Postemergence, 500 g ai/ha): 70
- Plant response rating, Foxtail, Giant [10, 18]: 90
- Plant response rating, Rice ([11]; 250 g ai/ha): 0
- Plant response rating, Rice ([11]; 1000 g ai/ha): 0
- Plant response rating, Sedge, Umbrella ([12]; 250 g ai/ha): 0
- Plant response rating, Sedge, Umbrella ([12]; 1000 g ai/ha): 0
